Measurements: patent publication US20240390503A1, “Green Tea-based Nanocomplexes for Eye Disease” (Agency for Science, Technology and Research, priority 2021, published 2024)
pIC50: −log10 of the molar value. Entries after “also recorded” stand apart in the source; their conditions may differ. Like-named read-outs stand apart in the source and are kept apart here.

Key:
[1] = tested on: Vldlr^−/− mice; test: In vivo anti-angiogenesis effect on Vldlr−/− mice (relative number of retinal lesions, fluorescein angiography)
[2] = tested on: Human umbilical vein endothelial cells (HUVECs); test: Inhibitory effects on VEGF-activated endothelial cell proliferation (AlamarBlue); assay type: cell-based; conditions: HUVEC, 3 days, read-out: IC50, anti-proliferative effect
Description: Human umbilical vein endothelial cells (HUVECs) were obtained from Lonza Biologics Tuas Pte Ltd (Singapore), and cultured in the endothelial cell basal medium (EBM-2) supplemented with EGM-2 SingleQuots (Lonza Biologics Tuas Pte Ltd, Singapore). HUVECs were seeded in 96-well plates (5×10^3 cells/well, n=5) and cultured for one day for cell attachment.
After 3 days, the cell viability was measured by using AlamarBlue® reagent (Life Technologies, USA) according to the manufacturer's protocol. Briefly, the medium was replaced by phenol red-free media containing 10% AlamarBlue® reagent. After incubation for 4 hours at 37° C., fluorescence intensity (λex=549 nm and λem=587 nm) was measured by a microplate reader (Tecan Group Ltd., Switzerland). Results were expressed as a percentage of viable cells relative to untreated cells.
The CI values of HA-EGCG and drug combination were calculated with the following equation using the CompuSyn software: […]

[3] = tested on: AMD patients; conditions: oral, cited from earlier work
[4] = tested on: AMD patients; conditions: cited from earlier work

## CCN(CC)CCNC(=O)c1c(C)[nH]c(/C=C2\C(=O)Nc3ccc(F)cc32)c1C [SU, Sunitinib malate]
[1]; topical, SU 0.50 mg/mL, 10 μL, 3×/day, 28 days
  progression of retinal lesions: no efficacy
[2]; Homo sapiens, 72 h, VEGF-activated conditions
  pIC50: 5.36
[2]; Homo sapiens, 72 h, normal growth conditions
  pIC50: 5.18

## Cc1[nH]c(/C=C2\C(=O)Nc3ccc(F)cc32)c(C)c1C(=O)N[C@H]1CCN(C(=O)N(C)C)C1 [Vorolanib]
[3]; phase 1, completed 24 weeks treatment
  AMD patients with improved visual acuity: 24 out of 25
[3]; phase 1
  participants who discontinued due to severe systemic adverse effects: 17%
[3]; phase 2, at 52 weeks
  visual acuity compared to placebo: did not improve visual acuity

## Aflibercept
[1]; IVT, 2.0 μg/0.5 μL, 1× at day 0
  CNV inhibitory effect: observed only in the early stages of treatment and diminished over time; also recorded: effective only in the first 7 days
[1]; topical, AF 0.2 mg/mL or equivalent HA-EGCG/chitosan, 10 μL, 3×/day, 31 days
  retinal lesion development: failed to suppress the lesion progression
[2]; VEGF-activated conditions
  pIC50: < 6.68

## Ranibizumab
[4]; monthly IVT injection, 0.5 mg
  AMD patients with improved visual acuity: 33.8%
[4]; two year treatment
  incidence of increased intraocular pressure: 24%
  incidence of intraocular inflammation: 18%
